Molecules are shown by their SMILES.

In data set [1] the target is T1, human adenosine A2A receptor (Homo sapiens, UniProt P29274).
T1 construct: expressed in transfected cells; host or cells: CHO cells, Semliki Forest virus expression system; washed membrane preparation
The experiment in a line: [3H]-SCH-58261 binding assay at the human adenosine A2A receptor. To be noted: [3H]-SCH-58261 (1 nM), membranes of CHO cells recombinantly expressing the human A2A receptor; Ki by Cheng-Prussoff; read-out: hA2ApKi (converted). Here is the method: Human Adenosine A2A Receptor
The human adenosine A2A receptor was recombinantly expressed in chinese hamster ovary (CHO) cells using the semliki forest virus expression system. Cells were harvested, washed twice by centrifugation, homogenised and again washed by centrifugation. The final washed membrane pellet was suspended in a Tris (50 mM) buffer containing 120 mM NaCl, […] and 10 mM MgCl2 (pH 7.4) (buffer A). The [^3H]-SCH-58261 (Dionisotti et al., 1997, Br J Pharmacol 121, 353; 1 nM) binding assay was carried out in 96-well plates in the presence of 2.5 μg of membrane protein, 0.5 mg of Ysi-poly-1-lysine SPA beads io and 0.1U adenosine deaminase in a final volume of 200 μl of buffer A. Non-specific binding was defined using xanthine amine congener (XAC; 2 μM). Compounds were tested at 10 concentrations from 10 μM-0.3 nM. All assays were conducted in duplicate and repeated at least two times. Assay plates were incubated for lhour at room temperature before centrifugation and then bound ligand determined using a Packard Topcount scintillation counter. IC50 values were calculated using a non-linear curve fitting program and Ki values calculated using the Cheng-Prussoff equation.

T1 sequence (P29274 whole entry): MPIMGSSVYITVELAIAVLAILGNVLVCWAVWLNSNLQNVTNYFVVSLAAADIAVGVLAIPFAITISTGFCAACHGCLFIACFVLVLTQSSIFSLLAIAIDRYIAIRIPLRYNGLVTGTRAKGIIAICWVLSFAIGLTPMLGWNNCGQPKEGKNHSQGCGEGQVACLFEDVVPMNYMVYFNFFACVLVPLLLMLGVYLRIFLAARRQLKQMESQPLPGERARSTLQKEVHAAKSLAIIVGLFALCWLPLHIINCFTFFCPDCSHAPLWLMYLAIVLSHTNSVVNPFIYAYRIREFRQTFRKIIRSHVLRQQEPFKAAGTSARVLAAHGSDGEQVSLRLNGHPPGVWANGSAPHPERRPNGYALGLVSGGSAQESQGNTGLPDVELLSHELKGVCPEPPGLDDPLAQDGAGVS

Usually melting point stands for the temperature, or range, at which the solid turns liquid. As to `Nc1cc(-c2ccccn2)cc2nc(-c3ccccc3)nn12` [Example 23, 2-Phenyl-7-pyridin-2-yl-[1,2,4]triazolo[1,5-a]pyridin-5-ylamine], the melting point was 278 to 280 °C.
The same measure, in the same setting: the figure for `CCc1cc(-c2cc(N)n3nc(-c4ccco4)nc3c2)ccn1` [Example 8, 7-(2-Ethyl-pyridin-4-yl)-2-furan-2-yl-[1,2,4]triazolo[1,5-a]pyridin-5-ylamine] is 184 to 186 °C.
`Cc1cc(-c2nc3cc(-c4ccncc4)cc(N)n3n2)oc1C` [Example 16, 2-(4,5-Dimethyl-furan-2-yl)-7-pyridin-4-yl-[1,2,4]triazolo[1,5-a]pyridin-5-ylamine] showed a melting point of 275 to 277 °C.
Turning to `COc1ccc(-c2cc(N)n3nc(-c4ccco4)nc3c2)cc1OC` [7-(3,4-Dimethoxy-phenyl)-2-furan-2-yl-[1,2,4]triazolo[1,5-a]pyridin-5-ylamine], the Ki in data set [1] is 0.0251 µM.
Still for that read-out and setting: the figure for `Cc1cccc(-c2cc(N)n3nc(C4=CCCO4)nc3c2)c1` [2-(4,5-Dihydro-furan-2-yl)-7-m-tolyl-[1,2,4]triazolo[1,5-a]pyridin-5-ylamine] is 0.0316 µM.
On to `Nc1cc(-c2ccnc(F)c2)cc2nc(-c3ccco3)nn12` [7-(2-Fluoro-pyridin-4-yl)-2-furan-2-yl-[1,2,4]triazolo[1,5-a]pyridin-5-ylamine], for which, in data set [1], the Ki is 0.0158 µM.
Same read-out and setting: the figure for `Cc1cc(-c2cc(N)n3nc(-c4ccccn4)nc3c2)ccn1` [7-(2-Methyl-pyridin-4-yl)-2-pyridin-2-yl-[1,2,4]triazolo[1,5-a]pyridin-5-ylamine] is 0.0316 µM; for `Nc1cc(-c2ccc(Cl)c(Cl)c2)cc2nc(C3=CCCO3)nn12` [7-(3,4-Dichloro-phenyl)-2-(4,5-dihydro-furan-2-yl)-[1,2,4]triazolo[1,5-a]pyridin-5-ylamine] it is 0.00794 µM.
`Nc1cc(-c2cc(Cl)cc(Cl)c2)cc2nc(-c3ccco3)nn12` [Example 5, 7-(3,5-Dichloro-phenyl)-2-furan-2-yl-[1,2,4]triazolo[1,5-a]pyridin-5-ylamine] yielded a melting point of 257 to 260 °C.
On to `CCc1cc(-c2cc(N)n3nc(-c4ccccn4)nc3c2)ccn1` [7-(2-Ethyl-pyridin-4-yl)-2-pyridin-2-yl-[1,2,4]triazolo[1,5-a]pyridin-5-ylamine], for which the Ki in data set [1] is 0.00794 µM.
For `Nc1cc(-c2cccc(F)c2)cc2nc(C3=CCCO3)nn12` [2-(4,5-Dihydro-furan-2-yl)-7-(3-fluoro-phenyl)-[1,2,4]triazolo[1,5-a]pyridin-5-ylamine], the Ki in data set [1] was 0.0251 µM.
On the same count and under the same terms, to `Cc1cccc(-c2cc(N)n3nc(-c4ccco4)nc3c2)c1` [2-Furan-2-yl-7-m-tolyl-[1,2,4]triazolo[1,5-a]pyridin-5-ylamine] belongs 0.01 µM; to `COc1ccc(-c2cc(N)n3nc(-c4ccco4)nc3c2)cn1` [2-Furan-2-yl-7-(6-methoxy-pyridin-3-yl)-[1,2,4]triazolo[1,5-a]pyridin-5-ylamine], 0.0126 µM.
Turning to `Nc1cc(-c2ccccc2)cc2nc(-c3ccccc3)nn12` [Example 25, 2,7-Diphenyl-[1,2,4]triazolo[1,5-a]pyridin-5-ylamine], the melting point lay in the range of 214 to 216 °C.
Still for that read-out and setting: the figure for `Nc1cc(-c2ccncc2)cc2nc(-c3ccccc3)nn12` [Example 22, 2-Phenyl-7-pyridin-4-yl-[1,2,4]triazolo[1,5-a]pyridin-5-ylamine] is 207 to 210 °C; for `Cc1cc(-c2cc(N)n3nc(-c4ccco4)nc3c2)ccn1` [Example 7, 2-Furan-2-yl-7-(2-methyl-pyridin-4-yl)-[1,2,4]triazolo[1,5-a]pyridin-5-ylamine] it is 100 to 101 °C.
`Nc1cc(-c2cccnc2)cc2nc(-c3ccccc3)nn12` [Example 24, 2-Phenyl-7-pyridin-3-yl-[1,2,4]triazolo[1,5-a]pyridin-5-ylamine]: the melting point was in the range of 201 to 203 °C.
